Measurements: ChEMBL document CHEMBL1130760, “Anti-malarial activities of acylated bruceolide derivatives” (Bioorg Med Chem Lett, 1998)
Values joined by “and” are separate entries in the source; they are usually repeats but may differ in a detail not shown here. Equal entries are not always repeated.

Tests used:
[1] = test system: FM3A; assay: Cytotoxicity against FM3A cells derived from a mammary tumor in mice was evaluated.; format: functional, cell-based; settings: Mus musculus
[2] = test system: Plasmodium falciparum; assay: Anti-malarial activity as growth inhibition of chloroquine-resistant Plasmodium falciparum; format: functional, organism-based
[3] = test system: FM3A; assay: Selective toxicity against Plasmodium falciparum compared to FM3A cytotoxicity; format: functional
[4] = test system: FM3A; assay: […] was evaluated by the percent viability of cells; format: functional, Mus musculus

Structure (SMILES)	EC50 [1]	EC50 ([2]; Plasmodium falciparum)	Ratio [3]	EC50 [2]	Viability [4]
COC(=O)[C@@]12OC[C@]34[C@H]([C@@H](O)[C@@H]1O)[C@@]1(C)CC(=O)C(OC(=O)C(C)N)=C(C)[C@@H]1C[C@H]3OC(=O)[C@H](OC(=O)C(C)N)[C@@H]24 (some centres undefined)	> 16 µM	1 µM	>16	–	–
COC(=O)[C@@]12OC[C@]34[C@H]([C@@H](O)[C@@H]1O)[C@@]1(C)CC(=O)C(OC(=O)C(N)Cc5ccccc5)=C(C)[C@@H]1C[C@H]3OC(=O)[C@H](OC(=O)C(N)Cc1ccccc1)[C@@H]24 (some centres undefined)	> 15 µM	2.8 µM	>5.4	–	–
COC(=O)[C@@]12OC[C@]34[C@H]([C@@H](O)[C@@H]1O)[C@@]1(C)CC(=O)C(OC(C)=O)=C(C)[C@@H]1C[C@H]3OC(=O)[C@H](OC(C)=O)[C@@H]24	16 µM	0.039 µM	410	–	–
COC(=O)[C@@]12OC[C@]34[C@H]([C@@H](O)[C@@H]1O)[C@@]1(C)CC(=O)C(OC(=O)/C=C/c5ccccc5)=C(C)[C@@H]1C[C@H]3OC(=O)[C@H](OC(=O)/C=C/c1ccccc1)[C@@H]24	< 0.15 µM	0.082 µM	–	–	–
CCC(=O)OC1=C(C)[C@@H]2C[C@H]3OC(=O)[C@H](OC(=O)CC)[C@H]4[C@]5(C(=O)OC)OC[C@]34[C@H]([C@@H](O)[C@@H]5O)[C@@]2(C)CC1=O	6.1 µM	0.035 µM	174	–	–
COC(=O)[C@@]12OC[C@]34[C@H]([C@@H](O)[C@@H]1O)[C@@]1(C)CC(=O)C(OC(=O)C(N)C(C)C)=C(C)[C@@H]1C[C@H]3OC(=O)[C@H](OC(=O)C(N)C(C)C)[C@@H]24 (some centres undefined)	> 15 µM	0.57 µM	>26	–	–
C/C=C(\C)C(=O)OC1=C(C)[C@@H]2C[C@H]3OC(=O)[C@H](OC(=O)/C(C)=C/C)[C@H]4[C@]5(C(=O)OC)OC[C@]34[C@H]([C@@H](O)[C@@H]5O)[C@@]2(C)CC1=O	> 16 µM	–	–	> 1 µM and 16 µM	100%
CCC(=O)O[C@H]1C(=O)O[C@@H]2C[C@H]3C(C)=C(O)C(=O)C[C@]3(C)[C@H]3[C@@H](O)[C@H](O)[C@@]4(C(=O)OC)OC[C@]32[C@@H]14	7 µM	0.029 µM	241	–	–
CCCCCCCCCCCCCCCC(=O)OC1=C(C)[C@@H]2C[C@H]3OC(=O)[C@H](OC(=O)CCCCCCCCCCCCCCC)[C@H]4[C@]5(C(=O)OC)OC[C@]34[C@H]([C@@H](O)[C@@H]5O)[C@@]2(C)CC1=O	–	16 µM	–	–	89.9%
COC(=O)[C@@]12OC[C@]34[C@H]([C@@H](O)[C@@H]1O)[C@@]1(C)CC(=O)C(O)=C(C)[C@@H]1C[C@H]3OC(=O)[C@H](OC(C)=O)[C@@H]24 [BRUCEINE B]	8 µM	0.024 µM	333	–	–
COC(=O)[C@@]12OC[C@]34[C@H]([C@@H](O)[C@@H]1O)[C@@]1(C)CC(=O)C(OC(=O)c5ccccc5)=C(C)[C@@H]1C[C@H]3OC(=O)[C@H](OC(=O)c1ccccc1)[C@@H]24	0.4 µM	> 1 µM	–	–	–
CCCCCC(=O)OC1=C(C)[C@@H]2C[C@H]3OC(=O)[C@H](OC(=O)CCCCC)[C@H]4[C@]5(C(=O)OC)OC[C@]34[C@H]([C@@H](O)[C@@H]5O)[C@@]2(C)CC1=O	< 0.17 µM	0.098 µM	–	–	–
CCCCCCCCCC(=O)OC1=C(C)[C@@H]2C[C@H]3OC(=O)[C@H](O)[C@H]4[C@]5(C(=O)OC)OC[C@]34[C@H]([C@@H](O)[C@@H]5O)[C@@]2(C)CC1=O	0.4 µM	> 1 µM	–	–	–
COC(=O)[C@@]12OC[C@]34[C@H]([C@@H](O)[C@@H]1O)[C@@]1(C)CC(=O)C(O)=C(C)[C@@H]1C[C@H]3OC(=O)[C@H](O)[C@@H]24 [BRUCEOLIDE]	> 21 µM	1.7 µM	>12.3	–	–
CCCCCCCCCC(=O)OC1=C(C)[C@@H]2C[C@H]3OC(=O)[C@H](OC(=O)CCCCCCCCC)[C@H]4[C@]5(C(=O)OC)OC[C@]34[C@H]([C@@H](O)[C@@H]5O)[C@@]2(C)CC1=O	< 0.16 µM	0.39 µM	–	–	–
C/C=C(/C)C(=O)OC1=C(C)[C@@H]2C[C@H]3OC(=O)[C@H](OC(=O)/C(C)=C\C)[C@H]4[C@]5(C(=O)OC)OC[C@]34[C@H]([C@@H](O)[C@@H]5O)[C@@]2(C)CC1=O	6 µM	0.7 µM	9	–	–
CCCCCC(=O)OC1=C(C)[C@@H]2C[C@H]3OC(=O)[C@H](O)[C@H]4[C@]5(C(=O)OC)OC[C@]34[C@H]([C@@H](O)[C@@H]5O)[C@@]2(C)CC1=O	1 µM	1 µM	–	–	–
